Reference: ChEMBL document CHEMBL3612024, “Synthesis of five and six-membered heterocycles bearing an arylpiperazinylalkyl side chain as orally active antinociceptive agents” (2015)
Activity calls are given as the source filed them. The calls are words filed in the database; no cut-off is given here.

Assays:
Conditions in all cases: Abdomen
Mus musculus [1] = experiment: Antinociceptive activity in Swiss albino mouse assessed as inhibition of acetic acid-induced abdominal constriction at 20 mg/kg, po administered 30 mins prior to testing measured for 10 mins starting 5 mins after acetic acid injection relative to control; type: functional
Mus musculus [2] = experiment: Antinociceptive activity in Swiss albino mouse assessed as inhibition of acetic acid-induced abdominal constriction at 40 mg/kg, po administered 30 mins prior to testing measured for 10 mins starting 5 mins after acetic acid injection relative to control; type: functional
Mus musculus [3] = experiment: Antinociceptive activity in Swiss albino mouse assessed as inhibition of acetic acid-induced abdominal constriction at 10 mg/kg, po administered 30 mins prior to testing measured for 10 mins starting 5 mins after acetic acid injection relative to control; type: functional
Mus musculus [4] = experiment: Antinociceptive activity in Swiss albino mouse assessed as inhibition of acetic acid-induced abdominal constriction at 40 mg/kg, po administered 30 mins prior to testing measured for 10 mins starting 5 mins after acetic acid injection in presence of alpha-2 adrenergic receptor antagonist yohimbine; type: functional, organism-based
Mus musculus [5] = experiment: Antinociceptive activity in Swiss albino mouse assessed as inhibition of acetic acid-induced abdominal constriction at 20 mg/kg, po administered 30 mins prior to testing measured for 10 mins starting 5 mins after acetic acid injection in presence of alpha-2 adrenergic receptor antagonist yohimbine; type: functional, organism-based
Mus musculus [6] = experiment: Antinociceptive activity in Swiss albino mouse assessed as inhibition of acetic acid-induced abdominal constriction at 30 mg/kg, po administered 30 mins prior to testing measured for 10 mins starting 5 mins after acetic acid injection relative to control; type: functional
Mus musculus [7] = experiment: Antinociceptive activity in Swiss albino mouse assessed as inhibition of acetic acid-induced abdominal constriction at 30 mg/kg, po administered 30 mins prior to testing measured for 10 mins starting 5 mins after acetic acid injection in presence of alpha-2 adrenergic receptor antagonist yohimbine; type: functional, organism-based
Mus musculus [8] = experiment: Antinociceptive activity in Swiss albino mouse assessed as inhibition of acetic acid-induced abdominal constriction at 80 mg/kg, po administered 30 mins prior to testing measured for 10 mins starting 5 mins after acetic acid injection relative to control; type: functional

Row | Structure (SMILES) | inhibition in vivo at 20 mg/kg (Mus musculus [1]) [%] | inhibition in vivo at 40 mg/kg (Mus musculus [2]) [%] | inhibition in vivo at 10 mg/kg (Mus musculus [3]) [%] | inhibition (Mus musculus [4]) | inhibition (Mus musculus [5]) | inhibition in vivo at 30 mg/kg (Mus musculus [6]) [%] | inhibition (Mus musculus [7]) | inhibition (Mus musculus [3]) | inhibition (Mus musculus [6]) | inhibition in vivo at 80 mg/kg (Mus musculus [8]) [%]
1 | Cc1c(C#N)c(-c2ccccc2)nn1CCCN1CCN(c2ccc(F)cc2)CC1 | 28 | 51 | 9 | inactive | – | – | – | – | – | –
2 | Cc1ccc(N2CCN(CCCn3nc(-c4ccccc4)c(C#N)c3C)CC2)cc1 | 8 | 30 | 0 | – | inactive | – | – | – | – | –
3 | CC(=O)c1c(C)nn(CCCN2CCN(c3ccc(C)cc3)CC2)c(=O)c1N | – | – | 19 | – | – | 46 | inactive | – | – | –
4 | C=Cc1c(CCC)nn(CCCN2CCN(c3ccc(C)cc3)CC2)c(=O)c1N | 7 | 22 | 3 | inactive | – | – | – | – | – | –
5 | C=Cc1c(CC)nn(CCCN2CCN(c3ccc(C)cc3)CC2)c(=O)c1N | 0 | 28 | 0 | inactive | – | – | – | – | – | –
6 | C=Cc1c(C)nn(CC(C)CN2CCN(c3ccc(C)cc3)CC2)c(=O)c1N (configuration not stated) | – | – | 17 | – | – | 47 | inactive | – | – | –
7 | CCC/C=C/c1c(C)nn(CCCN2CCN(c3ccc(C)cc3)CC2)c(=O)c1N | 16 | 36 | 0 | inactive | – | – | – | – | – | –
8 | CC(=O)c1cccn1CCCN1CCN(c2cccc(Cl)c2)CC1 | 41 | 54 | 3 | – | inactive | – | – | – | – | –
9 | CCC(=O)c1c(C)nn(CCCN2CCN(c3ccc(C)cc3)CC2)c(=O)c1N | 40 | 29 | 9 | – | inactive | – | – | – | – | –
10 | O=c1occ(-c2ccccc2)n1CCCN1CCN(c2cccc(Cl)c2)CC1 | 31 | 38 | 7 | – | inactive | – | – | – | – | –
11 | CCCC(=O)c1c(C)nn(CCCN2CCN(c3ccc(C)cc3)CC2)c(=O)c1N | 25 | 32 | 0 | – | inactive | – | – | – | – | –
12 | C=Cc1c(C)nn(CCCN2CCN(C(=O)c3ccc(Cl)c(F)c3)CC2)c(=O)c1N | – | – | – | – | – | – | – | inactive | inactive | –
13 | O=c1occ(-c2ccccc2)n1CCCN1CCN(c2ccc(F)cc2)CC1 | 12 | 34 | 14 | inactive | – | – | – | – | – | –
14 | Cc1c(C#N)c(-c2ccccc2)nn1CCCN1CCN(c2cccc(Cl)c2)CC1 | 0 | 23 | – | inactive | – | – | – | – | – | –
15 | CC(=O)c1cccn1CCCN1CCN(c2ccc([N+](=O)[O-])cc2)CC1 | 11 | 0 | – | – | – | – | – | – | – | 9
16 | CC(=O)c1cccn1CCCN1CCN(c2ccc(F)cc2)CC1 | 16 | 38 | 0 | inactive | – | – | – | – | – | –

Row | Structure (SMILES) | inhibition in vivo at 20 mg/kg (Mus musculus [1]) [%] | inhibition in vivo at 40 mg/kg (Mus musculus [2]) [%] | inhibition in vivo at 10 mg/kg (Mus musculus [3]) [%] | inhibition (Mus musculus [4]) | inhibition (Mus musculus [5]) | inhibition in vivo at 30 mg/kg (Mus musculus [6]) [%] | inhibition (Mus musculus [7]) | inhibition (Mus musculus [3]) | inhibition (Mus musculus [6]) | inhibition in vivo at 80 mg/kg (Mus musculus [8]) [%]
17 | C=Cc1c(C)nn(CCCCN2CCN(c3ccc(C)cc3)CC2)c(=O)c1N | – | – | 3 | – | – | 42 | inactive | – | – | –
18 | CC(=O)c1cccn1CCCN1CCN(c2ccc(C)cc2)CC1 | 7 | 9 | 12 | – | – | – | – | – | – | 4
19 | C=Cc1c(C)nn(CCCN2CCCN(c3ccc(C)cc3)CC2)c(=O)c1N | 10 | 31 | 0 | inactive | – | – | – | – | – | –
20 | COc1cccc(N2CCN(CCCn3nc(-c4ccccc4)c(C#N)c3C)CC2)c1 | 21 | 34 | 0 | – | inactive | – | – | – | – | –
21 | C=Cc1c(C)nn(CCCN2CCN(c3ccc(F)cc3)CC2)c(=O)c1N | – | – | 0 | – | – | 28 | inactive | – | – | –
22 | C=Cc1c(C)nn(CCCCN2CCN(c3ccccc3OCC)CC2)c(=O)c1N | – | – | – | – | – | – | – | inactive | inactive | –
23 | CC/C=C/c1c(C)nn(CCCN2CCN(c3ccc(C)cc3)CC2)c(=O)c1N | 35 | 45 | 5 | – | inactive | – | – | – | – | –
24 | COc1cccc(N2CCN(CCCn3c(-c4ccccc4)coc3=O)CC2)c1 | 25 | 39 | 8 | – | inactive | – | – | – | – | –
25 | CCCCC(=O)c1c(C)nn(CCCN2CCN(c3ccc(C)cc3)CC2)c(=O)c1N | 23 | 15 | 8 | – | inactive | – | – | – | – | –
26 | C=Cc1c(C)nn(CCCN2CCN(c3ccc(C)cc3)CC2)c(=O)c1N | – | 65 | 33 | inactive | – | 59 | – | – | – | –
27 | Cc1c(C#N)c(-c2ccccc2)nn1CCCN1CCN(c2ccc([N+](=O)[O-])cc2)CC1 | 21 | 49 | 0 | inactive | – | – | – | – | – | –
28 | CCc1c(C)nn(CCCN2CCN(c3ccc(C)cc3)CC2)c(=O)c1N | – | – | 23 | – | – | 45 | inactive | – | – | –
29 | CCc1nn(CCCN2CCN(c3ccc(C)cc3)CC2)c(=O)c(N)c1C(C)=O | 42 | 41 | 10 | – | inactive | – | – | – | – | –
30 | C/C=C/c1c(C)nn(CCCN2CCN(c3ccc(C)cc3)CC2)c(=O)c1N | 44 | 63 | 0 | – | inactive | – | – | – | – | –
31 | COc1cccc(N2CCN(CCCn3cccc3C(C)=O)CC2)c1 | 26 | 52 | 0 | inactive | – | – | – | – | – | –
32 | C=Cc1c(CCCC)nn(CCCN2CCN(c3ccc(C)cc3)CC2)c(=O)c1N | 41 | 48 | 0 | – | inactive | – | – | – | – | –
